Measurements: PubChem BioAssay AID2060625 (Molecular Pharmacology Branch, DTP, NCI, 2025)
Values joined by “and” are separate entries in the source; they are usually repeats but may differ in a detail not shown here. Equal values may be shown once.

Test system: 186277-243-T-J2-PDC spheroids with HUVEC/MSC, viability
Assay: Anticancer human tumor 186277-243-T-J2-PDC patient-derived colon adenocarcinoma cell line growth inhibition [CLK]
Conditions: for viability, T/C: stronger effect = lower value; for IC50: curve of compound
Source text: A high-throughput screen of multi-cell type tumor spheroids was designed to identify active combinations of […] and targeted small molecules. Complex spheroids include a stromal component modeled by human endothelial cells (HUVEC) and fibroblasts modeled by human mesenchymal stem cells (MSCs). The concentration ranges selected for each drug and investigational agent were based upon clinically achievable concentrations if the clinical Cmax of the agent was known.
Compounds. The drugs and investigational agents: cirtuvivint (SM08502; NSC835563), CC-671 (NSC850746), vemurafenib (NSC761431), tapotoclax (NSC804041), sotorasib (NSC818433), adagrasib (NSC831453), MRTX-1133 (NSC836407), BAY2416964 (NSC825713), copanlisib (NSC816437), inavolisib (NSC800729), abemaciclib (NSC768073), osimertinib (NSC779217), entinostat (NSC756642), eltanexor (KPT-8602, NSC794443), venetoclax (NSC766270), ceralasertib (NSC777638), bortezomib (NSC756655), olaparib (NSC753686), talazoparib (NSC767125), alisertib (NSC759677), peposertib (NSC802822), gemcitabine (NSC613327), 5-fluorouracil (NSC19893), SN-38 (NSC673596), oxaliplatin (NSC266046), paclitaxel (NSC125973), and doxorubicin (NSC123127), were obtained from the National Cancer Institute (NCI) Developmental Therapeutics Program Chemical Repository. The FDA-approved anticancer drug set is available from the Developmental Therapeutics Program at https://dtp.cancer.gov/organization/dscb/obtaining/available plates.htm. […] The stock solutions were prepared in dimethyl sulfoxide (DMSO, Sigma-Aldrich, St. Louis, MO, cat. D2650), except for the platinum complexes which were prepared in saline (Quality Biological, Gaithersburg, MD, cat. 114-055-101), at 800-fold the tested concentration and stored at -70 degrees C prior to their use. All drugs and investigational agents were tested over a range starting from a high concentration at or near the clinical Cmax and decreasing in half-log increments. If the clinical Cmax for an agent had not been determined, the highest concentration tested was 10 microM.
Cell Culture. All cells were maintained in an incubator at 37 degrees C and 5% CO2 with 95% humidity. The PDC lines were cultured according to standard operating procedures established by the NCI PDMR. Briefly, all PDCs were thawed and cultured in Matrigel-coated flasks prepared with a working solution of 1X Ham's F-12 nutrient mix, without supplementation (Invitrogen, Waltham, MA, cat. 11765054), 100 U/mL penicillin-streptomycin (Invitrogen, cat. 15140122), and 2.5% Matrigel (Corning Inc., Corning, NY, cat. 354248) for the first three passages. The 947758-054-R-J2-PDC line was cultured in 6B/Colon 1A media, which includes advanced DMEM/F-12 (Thermo Fisher Scientific, cat. 12634028), 10 mM HEPES (Thermo Fisher Scientific, cat. 15630080), 1X GlutaMAX supplement (Thermo Fisher Scientific, cat. 35050061), 0.1 mg/mL primocin (InvivoGen, cat. ant-pm-2), 10% defined fetal bovine serum, heat inactivated (HyClone Laboratories Inc., cat. SH30070.03HI), 1.25 mM N-Acetyl-L-cysteine (Sigma-Aldrich, cat. A9165), 10 mM nicotinamide (Sigma-Aldrich, cat. N0636), 1X B-27 supplement (Thermo Fisher Scientific, cat. 17504044), 1X N-2 supplement (Thermo Fisher Scientific, cat. 17502048), and 10 microM Y-27632 dihydrochloride (Tocris Bioscience, cat. 1254). The 876862-298-R-J1-PDC was cultured in 6E media, which includes all 6B/Colon 1A media components plus 50% L-WRN conditioned media (ATCC, cat. CRL-3276), 50 ng/mL recombinant human EGF recombinant protein (hEGF; Thermo Fisher Scientific, cat. PHG0311), 10 ng/mL recombinant human fibroblast growth factor 10 (hGFG-10; PeproTech, cat. 100-26), 1 ng/mL recombinant human fibroblast growth factor 2 (hFGF-2; PeproTech, cat. 100-18B), and 1 µM prostaglandin E2 (PGE2; Tocris, cat. 2296). The 227483-062-R1-J1-PDC line was cultured in Panc media, containing all 6E components except hFGF-2, with the addition of 500 nM SB-431542 (Selleckchem, cat. S1067) and 10 nM gastrin (Tocris, cat. 3006). […]
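Note: compound exposure lasted seven days before readout.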
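Throughout, for viability, T/C: 100% = DMSO vehicle control wells.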

Structure (SMILES)	viability, T/C (compound 0.00316 µM)	viability, T/C (compound 0.01 µM)	viability, T/C (compound 0.0316 µM)	viability, T/C (compound 0.1 µM)	viability, T/C (compound 0.316 µM)	viability, T/C (compound 1 µM)	IC50	viability, T/C (compound 3.16 µM)	viability, T/C (compound 10 µM)	viability, T/C (compound 0.000316 µM)	viability, T/C (compound 0.001 µM)	viability, T/C (compound 0.00949 µM)	viability, T/C (compound 0.03 µM)	viability, T/C (compound 0.0949 µM)	viability, T/C (compound 0.3 µM)	viability, T/C (compound 0.949 µM)	viability, T/C (compound 3 µM)
CCN1CCN(Cc2ccc(Nc3ncc(F)c(-c4cc(F)c5nc(C)n(C(C)C)c5c4)n3)nc2)CC1	81% and 102%	94.2% and 98.3%	103% and 120%	121% and 116%	120% and 131%	117% and 107%	> 1000 nM	–	–	–	–	–	–	–	–	–	–
CCc1c2c(nc3ccc(O)cc13)-c1cc3c(c(=O)n1C2)COC(=O)[C@]3(O)CC	115% and 111%	95.3% and 79.7%	66.4% and 56.8%	30.3% and 24.5%	26% and 21.8%	21.6% and 16.9%	53.4 nM and 34.3 nM	–	–	–	–	–	–	–	–	–	–
COC1C=CCC(C)C(C)S(=O)(=O)NC(=O)c2ccc3c(c2)N(CC2CCC21)CC1(CCCc2cc(Cl)ccc21)CO3 (configuration not stated)	–	–	83.5% and 117%	90% and 103%	88.2% and 101%	85.8% and 84.1%	5110 nM and 4150 nM	82.9% and 69.2%	3.82% and 5.57%	–	–	–	–	–	–	–	–
COc1c(OCCCN2CCOCC2)ccc2c3n(c(=NC(=O)c4cnc(N)nc4)nc12)CCN3	84.7% and 90.2%	91.5% and 103%	63.3% and 52.9%	40% and 23.9%	23.7% and 13.1%	15.5% and 8.53%	63.6 nM and 34.6 nM	–	–	–	–	–	–	–	–	–	–
COc1cccc2c1C(=O)c1c(O)c3c(c(O)c1C2=O)CC(O)(C(=O)CO)CC3OC1CC(N)C(O)C(C)O1 (configuration not stated)	–	–	127%	76.1%	20.6%	0.4%	171 nM	1.81%	2.31%	–	–	–	–	–	–	–	–
Cn1ncnc1[C@H]1c2n[nH]c(=O)c3cc(F)cc(c23)N[C@@H]1c1ccc(F)cc1	109% and 110%	100% and 103%	115% and 127%	121% and 134%	–	–	> 100 nM	–	–	99.8% and 98.2%	73.1% and 89.7%	–	–	–	–	–	–
NC(=O)C(=Cn1cnc(-c2cc(C(F)(F)F)cc(C(F)(F)F)c2)n1)c1cncnc1	–	–	–	–	–	–	186 nM and 175 nM	–	–	–	–	88.2% and 88.1%	84.5% and 87.8%	113% and 107%	18.2% and 10.8%	4.07% and 5.27%	1.81% and 3.46%
Nc1ccccc1NC(=O)c1ccc(CNC(=O)OCc2cccnc2)cc1	–	–	100% and 92.4%	88.7% and 92%	85.5% and 84.9%	110% and 100%	5600 nM and 3010 nM	76.6% and 48%	23.2% and 13.7%	–	–	–	–	–	–	–	–
Nc1ccn(C2OC(CO)C(O)C2(F)F)c(=O)n1 (configuration not stated)	–	–	15.6% and 11.9%	15.7% and 12.4%	15.3% and 12.4%	17.3% and 13.5%	< 31.6 nM	19% and 14%	20.5% and 13.1%	–	–	–	–	–	–	–	–
O=C(c1cc(Cc2n[nH]c(=O)c3ccccc23)ccc1F)N1CCN(C(=O)C2CC2)CC1	–	–	102%	90% and 99.4%	101% and 109%	114% and 110%	> 10000 nM	118% and 119%	126% and 103%	–	–	–	–	–	–	–	–
O=c1[nH]cc(F)c(=O)[nH]1	–	–	99.2% and 100%	84.2% and 98.6%	99% and 94.5%	93.7% and 97%	> 10000 nM	108% and 102%	65.2% and 63%	–	–	–	–	–	–	–	–
